# Like-named read-outs stand apart in the source and are kept apart here.
# Columns and labels:
# [1] = system: panel of 55 breast cancer cell lines; assay: Cell growth inhibition assay (Cell Titer Glo, 72 h, 9 doses; GI50, TGI, LC50); type: cell-based, human; conditions: Homo sapiens, read-out: GI50 (converted)
# [2] = system: luminal, basal, claudin-low and ERBB2AMP breast cancer cell lines; assay: Associations of clinically relevant subtypes and response (non-parametric ANOVA or t-test on GI50 ranks); type: cell-based, human; conditions: Table 6; most sensitive subtype, FDR p<0.20
# Summary of the method: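 Significance was set at FDR p<0.20 after combining p-values across three test sets. Subtype–response associations came from rank-based non-parametric ANOVA or t-tests on GI50. For three-class comparisons, post-hoc tests of each group against the rest identified the most sensitive group, with FDR correction.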
compound,measurement,setting,value
CCNCCCNC/C=C\CNCCCNCC [CGC-11047],GI50,"[1]; 600MPE cell line, censored GI50 values",468 µM
same,GI50,"[1]; AU565, AU565 cell line, censored GI50 values",288 µM
same,GI50,"[1]; AU565, cell line AU565",288 µM
same,GI50,"[1]; BT-474, BT474 cell line, censored GI50 values",269 µM
same,GI50,"[1]; BT-474, cell line BT474",269 µM
same,GI50,"[1]; BT-483, BT483 cell line, censored GI50 values",589 µM
same,GI50,"[1]; BT-483, cell line BT483",589 µM
same,GI50,"[1]; BT-549, BT549 cell line, censored GI50 values",29.5 µM
same,GI50,"[1]; BT-549, cell line BT549",29.5 µM
same,GI50,"[1]; CAMA-1, CAMA1 cell line, censored GI50 values",1260 µM
same,GI50,"[1]; CAMA-1, cell line CAMA1",1260 µM
same,GI50,"[1]; HCC38, HCC38 cell line, censored GI50 values",11.7 µM
same,GI50,"[1]; HCC38, cell line HCC38",11.7 µM
same,GI50,"[1]; HCC70, HCC70 cell line, censored GI50 values",2.09 µM
same,GI50,"[1]; HCC70, cell line HCC70",2.09 µM
same,GI50,"[1]; HCC202, HCC202 cell line, censored GI50 values",14.5 µM
same,GI50,"[1]; HCC202, cell line HCC202",14.5 µM
same,GI50,"[1]; HCC1143, HCC1143 cell line, censored GI50 values",112 µM
same,GI50,"[1]; HCC1143, cell line HCC1143",112 µM
same,GI50,"[1]; HCC1187, HCC1187 cell line, censored GI50 values",1550 µM
same,GI50,"[1]; HCC1187, cell line HCC1187",1550 µM
same,GI50,"[1]; HCC1395, HCC1395 cell line, censored GI50 values",87.1 µM
same,GI50,"[1]; HCC1395, cell line HCC1395",87.1 µM
same,GI50,"[1]; HCC1419, HCC1419 cell line, censored GI50 values",14.1 µM
same,GI50,"[1]; HCC1419, cell line HCC1419",14.1 µM
same,GI50,"[1]; HCC1428, HCC1428 cell line, censored GI50 values",204 µM
same,GI50,"[1]; HCC1428, cell line HCC1428",204 µM
same,GI50,"[1]; HCC1500, HCC1500 cell line, censored GI50 values",63.1 µM
same,GI50,"[1]; HCC1500, cell line HCC1500",63.1 µM
same,GI50,"[1]; HCC1806, HCC1806 cell line, censored GI50 values",74.1 µM
same,GI50,"[1]; HCC1806, cell line HCC1806",74.1 µM
same,GI50,"[1]; HCC1937, HCC1937 cell line, censored GI50 values",6.92 µM
same,GI50,"[1]; HCC1937, cell line HCC1937",6.92 µM
same,GI50,"[1]; HCC1954, HCC1954 cell line, censored GI50 values",0.692 µM
same,GI50,"[1]; HCC1954, cell line HCC1954",0.692 µM
same,GI50,"[1]; HCC2185 cell line, censored GI50 values",407 µM
same,GI50,"[1]; HCC3153 cell line, censored GI50 values",5.75 µM
same,GI50,"[1]; LY2 cell line, censored GI50 values",1510 µM
same,GI50,"[1]; MCF7, MCF7 cell line, censored GI50 values",85.1 µM
same,GI50,"[1]; MCF7, cell line MCF7",85.1 µM
same,GI50,"[1]; MDA-MB-134-VI, MDAMB134VI cell line, censored GI50 values",1070 µM
same,GI50,"[1]; MDA-MB-157, MDAMB157 cell line, censored GI50 values",1020 µM
same,GI50,"[1]; MDA-MB-157, cell line MDAMB157",1020 µM
same,GI50,"[1]; MDA-MB-175-VII, MDAMB175VII cell line, censored GI50 values",617 µM
same,GI50,"[1]; MDA-MB-231, MDAMB231 cell line, censored GI50 values",2510 µM
same,GI50,"[1]; MDA-MB-231, cell line MDAMB231",2510 µM
same,GI50,"[1]; MDA-MB-361, MDAMB361 cell line, censored GI50 values",708 µM
same,GI50,"[1]; MDA-MB-361, cell line MDAMB361",708 µM
same,GI50,"[1]; MDA-MB-415, MDAMB415 cell line, censored GI50 values",75.9 µM
same,GI50,"[1]; MDA-MB-415, cell line MDAMB415",75.9 µM
same,GI50,"[1]; MDA-MB-436, MDAMB436 cell line, censored GI50 values",380 µM
same,GI50,"[1]; MDA-MB-436, cell line MDAMB436",380 µM
same,GI50,"[1]; MDA-MB-453, MDAMB453 cell line, censored GI50 values",501 µM
same,GI50,"[1]; MDA-MB-453, cell line MDAMB453",501 µM
same,GI50,"[1]; MDA-MB-468, MDAMB468 cell line, censored GI50 values",0.891 µM
same,GI50,"[1]; MDA-MB-468, cell line MDAMB468",0.891 µM
same,GI50,"[1]; SK-BR-3, cell line SKBR3",5010 µM
same,GI50,"[1]; SUM52PE, cell line SUM52PE",3.55 µM
same,GI50,"[1]; SUM149PT, SUM149PT cell line, censored GI50 values",28.8 µM
same,GI50,"[1]; SUM149PT, cell line SUM149PT",28.8 µM
same,GI50,"[1]; SUM185PE, cell line SUM185PE",501 µM
same,GI50,"[1]; SUM1315MO2, SUM1315MO2 cell line, censored GI50 values",708 µM
same,GI50,"[1]; SUM-159-PT, SUM159PT cell line, censored GI50 values",107 µM
same,GI50,"[1]; SUM-159-PT, cell line SUM159PT",107 µM
same,GI50,"[1]; T47D, cell line T47D",9.33 µM
same,GI50,"[1]; UACC-812, cell line UACC812",339 µM
same,GI50,"[1]; UACC-893, cell line UACC893",2090 µM
same,GI50,"[1]; ZR-75-1, cell line ZR751",501 µM
same,GI50,"[1]; ZR-75-30, cell line ZR7530",5010 µM
same,GI50,"[1]; ZR-75B, cell line ZR75B",562 µM
same,GI50,[1]; cell line 600MPE,468 µM
same,GI50,[1]; cell line HCC2185,407 µM
same,GI50,[1]; cell line HCC3153,5.75 µM
same,GI50,[1]; cell line LY2,1510 µM
same,GI50,[1]; cell line MDAMB134V,1070 µM
same,GI50,[1]; cell line MDAMB175V,617 µM
same,GI50,[1]; cell line SUM1315MO,708 µM
same,Subtype specificity,[2],Basal
